From PubChem BioAssay (NCI)
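Method: 48-hour compound exposure of cells in 96-well plates, five concentrations, linear interpolation of endpoints. At the TGI there is no net growth.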 Square brackets hold non-standard residues; d marks the D form. Peptide text beside a SMILES is read from it. * marks the point of attachment. Boc = CC(C)(C)OC(=O)*; OBn = c1ccc(CO*)cc1

Tests used:
Assay in all cases: NCI-60 cell line screen, 48 h
ACHN renal = tested on: ACHN renal
SNB-75 CNS = tested on: SNB-75 CNS
UACC-62 melanoma = tested on: UACC-62 melanoma
EKVX NSCLC = tested on: EKVX NSCLC
MDA-N = tested on: MDA-N
OVCAR-8 ovarian = tested on: OVCAR-8 ovarian
SK-MEL-28 melanoma = tested on: SK-MEL-28 melanoma
HCT-15 colon = tested on: HCT-15 colon
OVCAR-5 ovarian = tested on: OVCAR-5 ovarian
BT-549 breast = tested on: BT-549 breast
SNB-19 CNS = tested on: SNB-19 CNS
HT29 colon = tested on: HT29 colon
SK-OV-3 ovarian = tested on: SK-OV-3 ovarian
SW-620 colon = tested on: SW-620 colon
MDA-MB-231 breast = tested on: MDA-MB-231 breast
T-47D breast = tested on: T-47D breast
DU-145 prostate = tested on: DU-145 prostate
SF-295 CNS = tested on: SF-295 CNS
HCT-116 colon = tested on: HCT-116 colon
MDA-MB-435 = tested on: MDA-MB-435
786-0 renal = tested on: 786-0 renal
LOX IMVI melanoma = tested on: LOX IMVI melanoma
UACC-257 melanoma = tested on: UACC-257 melanoma
MALME-3M melanoma = tested on: MALME-3M melanoma
CCRF-CEM leukemia = tested on: CCRF-CEM leukemia
SK-MEL-2 melanoma = tested on: SK-MEL-2 melanoma
A549 NSCLC = tested on: A549 NSCLC
A498 renal = tested on: A498 renal
TK-10 renal = tested on: TK-10 renal
CAKI-1 renal = tested on: CAKI-1 renal
COLO 205 colon = tested on: COLO 205 colon
PC-3 prostate = tested on: PC-3 prostate
NCI-H460 lung = tested on: NCI-H460 lung
HOP-92 NSCLC = tested on: HOP-92 NSCLC
NCI/ADR-RES ovarian = tested on: NCI/ADR-RES ovarian
OVCAR-4 ovarian = tested on: OVCAR-4 ovarian
NCI-H522 lung = tested on: NCI-H522 lung
UO-31 renal = tested on: UO-31 renal
SN12C renal = tested on: SN12C renal
SF-539 CNS = tested on: SF-539 CNS
RXF 393 renal = tested on: RXF 393 renal
SF-268 CNS = tested on: SF-268 CNS
NCI-H23 lung = tested on: NCI-H23 lung
HS 578T breast = tested on: HS 578T breast
IGROV1 ovarian = tested on: IGROV1 ovarian
OVCAR-3 ovarian = tested on: OVCAR-3 ovarian
M14 melanoma = tested on: M14 melanoma
SK-MEL-5 melanoma = tested on: SK-MEL-5 melanoma
MOLT-4 leukemia = tested on: MOLT-4 leukemia
MCF7 breast = tested on: MCF7 breast
HOP-62 NSCLC = tested on: HOP-62 NSCLC
KM12 colon = tested on: KM12 colon
K-562 leukemia = tested on: K-562 leukemia
U251 CNS = tested on: U251 CNS
SR leukemia = tested on: SR leukemia
RPMI-8226 leukemia = tested on: RPMI-8226 leukemia
NCI-H226 lung = tested on: NCI-H226 lung
HL-60(TB) leukemia = tested on: HL-60(TB) leukemia

`CC(C)(C)c1ccc(O)c(CN(Cc2c(O)ccc3ccccc23)C2CCCCC2)c1` gave a TGI (ACHN renal) of 33.3 µM, a TGI (SNB-75 CNS) of 32.3 µM and a TGI (UACC-62 melanoma) of 30.1 µM. The TGI (EKVX NSCLC) was 30 µM, the TGI (MDA-N) was 29.3 µM and the TGI (OVCAR-8 ovarian) was 31.8 µM. It also gave a TGI (SK-MEL-28 melanoma) of 46 µM, a TGI (HCT-15 colon) of 31 µM and a TGI (OVCAR-5 ovarian) of 32.4 µM. It also gave a TGI (BT-549 breast) of 34.4 µM, a TGI (SNB-19 CNS) of 43.9 µM and a TGI (HT29 colon) of 31.6 µM. For the same compound, the TGI (SK-OV-3 ovarian) was 58.6 µM, the TGI (SW-620 colon) was 85.2 µM and the TGI (MDA-MB-231 breast) was 30.6 µM. The TGI (T-47D breast) was 44.3 µM, the TGI (DU-145 prostate) was 60.9 µM and the TGI (SF-295 CNS) was 38.1 µM. For the same compound, the TGI (HCT-116 colon) was 30.9 µM, the TGI (MDA-MB-435) was 52.6 µM and the TGI (786-0 renal) was 29.2 µM. For the same compound, the TGI (LOX IMVI melanoma) was 23.9 µM, the TGI (UACC-257 melanoma) was 29.3 µM and the TGI (MALME-3M melanoma) was 31.9 µM. It also gave a TGI (CCRF-CEM leukemia) greater than 100 µM, a TGI (SK-MEL-2 melanoma) of 31.3 µM and a TGI (A549 NSCLC) of 48.9 µM. The TGI (A498 renal) was 37.6 µM, the TGI (TK-10 renal) was 29.2 µM and the TGI (CAKI-1 renal) was 32.2 µM. For the same compound, the TGI (COLO 205 colon) was 29.3 µM, the TGI (PC-3 prostate) was 28.5 µM and the TGI (NCI-H460 lung) was 30.4 µM. The TGI (HOP-92 NSCLC) was 30.7 µM, the TGI (NCI/ADR-RES ovarian) was 32.4 µM and the TGI (OVCAR-4 ovarian) was 58.6 µM. The TGI (NCI-H522 lung) was 28.9 µM, the TGI (UO-31 renal) was 29.2 µM and the TGI (SN12C renal) was 33.1 µM. It also gave a TGI (SF-539 CNS) of 30.8 µM, a TGI (RXF 393 renal) of 33.6 µM and a TGI (SF-268 CNS) of 30.9 µM. For the same compound, the TGI (NCI-H23 lung) was 35.3 µM, the TGI (HS 578T breast) was 84.3 µM and the TGI (IGROV1 ovarian) was 32.7 µM. For the same compound, the TGI (OVCAR-3 ovarian) was 34.3 µM, the TGI (M14 melanoma) was 25.7 µM and the TGI (SK-MEL-5 melanoma) was 30.2 µM. It also gave a TGI (MOLT-4 leukemia) of 54.9 µM, a TGI (MCF7 breast) of 31.9 µM and a TGI (HOP-62 NSCLC) of 36.9 µM. The TGI (KM12 colon) was 39.6 µM, the TGI (K-562 leukemia) was 52.1 µM and the TGI (U251 CNS) was 29.4 µM. The TGI (SR leukemia) was 52.2 µM and the TGI (RPMI-8226 leukemia) was greater than 100 µM.
`C[C@@H](NC(=O)CNC(=O)OC(C)(C)C)C(=O)N[C@@H](Cc1ccccc1)C(=O)OCc1ccccc1` (Boc-Gly-[dA]-Phe-OBn) showed a TGI (ACHN renal) greater than 100 µM, a TGI (SNB-75 CNS) greater than 100 µM and a TGI (UACC-62 melanoma) greater than 100 µM. For the same compound, the TGI (NCI-H226 lung) was greater than 100 µM, the TGI (EKVX NSCLC) was greater than 100 µM and the TGI (MDA-N) was greater than 100 µM. For the same compound, the TGI (OVCAR-8 ovarian) was greater than 100 µM, the TGI (SK-MEL-28 melanoma) was 39.4 µM and the TGI (HCT-15 colon) was greater than 100 µM. For the same compound, the TGI (OVCAR-5 ovarian) was greater than 100 µM, the TGI (BT-549 breast) was greater than 100 µM and the TGI (SNB-19 CNS) was greater than 100 µM. For the same compound, the TGI (HT29 colon) was greater than 100 µM, the TGI (SK-OV-3 ovarian) was greater than 100 µM and the TGI (SW-620 colon) was greater than 100 µM. The TGI (MDA-MB-231 breast) was greater than 100 µM, the TGI (T-47D breast) was greater than 100 µM and the TGI (DU-145 prostate) was greater than 100 µM. It also gave a TGI (SF-295 CNS) greater than 100 µM, a TGI (HCT-116 colon) greater than 100 µM and a TGI (MDA-MB-435) greater than 100 µM. The TGI (786-0 renal) was greater than 100 µM, the TGI (LOX IMVI melanoma) was 58 µM and the TGI (UACC-257 melanoma) was greater than 100 µM. The TGI (MALME-3M melanoma) was 32.6 µM, the TGI (CCRF-CEM leukemia) was 67 µM and the TGI (SK-MEL-2 melanoma) was greater than 100 µM. It also gave a TGI (A549 NSCLC) greater than 100 µM, a TGI (TK-10 renal) greater than 100 µM and a TGI (CAKI-1 renal) greater than 100 µM. For the same compound, the TGI (COLO 205 colon) was 32.7 µM, the TGI (PC-3 prostate) was greater than 100 µM and the TGI (HOP-92 NSCLC) was 45.3 µM. The TGI (NCI/ADR-RES ovarian) was greater than 100 µM, the TGI (OVCAR-4 ovarian) was greater than 100 µM and the TGI (NCI-H522 lung) was 80.4 µM. It also gave a TGI (UO-31 renal) greater than 100 µM, a TGI (SN12C renal) greater than 100 µM and a TGI (SF-539 CNS) greater than 100 µM. The TGI (RXF 393 renal) was greater than 100 µM, the TGI (SF-268 CNS) was greater than 100 µM and the TGI (NCI-H23 lung) was greater than 100 µM. The TGI (HS 578T breast) was 71.2 µM, the TGI (IGROV1 ovarian) was greater than 100 µM and the TGI (M14 melanoma) was 44.7 µM. The TGI (SK-MEL-5 melanoma) was 42.2 µM, the TGI (MOLT-4 leukemia) was 88.1 µM and the TGI (MCF7 breast) was greater than 100 µM. For the same compound, the TGI (KM12 colon) was greater than 100 µM, the TGI (HL-60(TB) leukemia) was greater than 100 µM and the TGI (K-562 leukemia) was 64.4 µM. It also gave a TGI (U251 CNS) greater than 100 µM and a TGI (SR leukemia) of 88.9 µM.
